The record followed here is patent publication US12433843B2, “Biomolecular composites comprising modified cell ghosts” (National University of Singapore, priority 2017, dated 2025).

In the data set the test system is CT26 mouse colon carcinoma model. Nature of the data set: In vivo co-localisation of Cy7 labelled nCVTs, IVIS imaging. Here is the method:
The nCVTs labelled with cyanine 7 NHS Monoester dye (Cy7) of Example 7 were compared with similarly labeled liposomes of the same lipid constitution (Liposomes produced for loading and in vitro testing were prepared with 1.95 mg of DPPC and 0.05 mg of Cholesterol. Liposomes produced for in vivo experiments were PEGylated, and prepared with 2.61 mg of DPPC, 1.61 mg of DSPE-PEG2000 and 0.78 mg of cholesterol.) The samples were then injected through the tail vein of a CT26 mouse colon carcinoma model, with tumour formation subcutaneously on the back of the mouse.
Three groups of mice were injected with Cy7 labelled nCVTs, Cy7 labelled liposomes and free dye. After 24 hours, the mice were imaged using the In Vivo Imaging Systems (IVIS) spectrum.

Take cyanine 7 NHS Monoester dye [free dye]: the “Relative fluorescence intensity of excised liver and kidney” value (24 hours, liposomes are PEGylated) is on record as “reduced fluorescence intensity”. For the same substance, the “Accumulation of fluorescence at the tumour site (IVIS, whole mice)” value (tail vein injection, after 24 hours, liposomes are PEGylated) was “does not accumulate in the tumours”. Moreover, where the note is “tail vein injection, mouse”, the Clearance result was “rapidly cleared”. The “Elimination from the mouse” value (within 24 hours) is “largely eliminated”.
